Literature values, collected in patent US20220354806A1, “COMPOSITION FOR IMPROVING MEMORY” (BGG JAPAN CO., LTD., priority 2019, published 2022).

Legend:
[1] = greater than that of a vitamin E
[2] = after ingesting compared with before ingesting; no placebo comparison
[3] = placebo group ingesting corn oil

Structure (SMILES): CC1=C(/C=C/C(C)=C/C=C/C(C)=C/C=C/C=C(C)/C=C/C=C(C)/C=C/C2=C(C)C(=O)C(O)CC2(C)C)C(C)(C)CC(O)C1=O (stereo not drawn) [astaxanthin, 3,3′-dihydroxy-β,β-carotene-4,4′-dione]
- anti-oxidation effect relative to vitamin E [1]: 1000 times
- correct answer rate in the operation of the "working memory" [2]: improved
- response time of all 5 operations (simple reaction, choice reaction, working memory, delayed recall, divided attention) [2]: improved
- improvement effect on the human cognitive function, astaxanthin group vs placebo group [3]: a significant difference of the improvement effect on the human cognitive function is not confirmed
